Assay results from PubChem BioAssay AID1963848 (Molecular Pharmacology Branch, DTP, NCI, 2024).

System: 379773-124-R-J2-PDC spheroid viability
Assay: Anticancer human tumor 379773-124-R-J2-PDC patient-derived endometrial carcinoma cell line growth inhibition [POLQ]
Conditions: spheroids with HUVEC and MSC; for IC50: curve of first compound; for viability, T/C: stronger effect = lower value; active = viability on the fitted dose curve at most 10% of control; inactive = the rest
Outline: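 Patient-derived tumour cells were co-cultured with HUVEC and mesenchymal stem cells as multicellular spheroids at 37 °C. They were treated with POLQ inhibitors (novobiocin, ART-558, RP6685) alone or combined with other agents. Top concentrations were at or near clinical Cmax (otherwise 10 microM; SN-38 at 1 microM), decreasing in half-log steps.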
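Note: spheroids exposed to drugs for seven days before readout.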
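Throughout, for viability, T/C: percent viability relative to DMSO vehicle control taken as 100%.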

CC(=O)O[C@H]1C(=O)[C@@]2(C)[C@H]([C@H](OC(=O)c3ccccc3)[C@]3(O)C[C@H](OC(=O)[C@H](O)[C@@H](NC(=O)c4ccccc4)c4ccccc4)C(C)=C1C3(C)C)[C@]1(OC(C)=O)CO[C@@H]1C[C@@H]2O + Nc1ccc(C#CCN(C(=O)Cc2ncc(C(F)(F)F)cc2C(F)(F)F)c2ccc(F)cc2)nn1
inactive: viability, T/C (second compound 0.0316 µM, first compound 0.00949 µM) 22.9% | viability, T/C (second compound 0.1 µM, first compound 0.00949 µM) 19% | viability, T/C (second compound 0.1 µM, first compound 0.03 µM) 11.5% | viability, T/C (second compound 0.316 µM, first compound 0.00949 µM) 23.7% | viability, T/C (second compound 0.316 µM, first compound 0.03 µM) 9.89% | viability, T/C (second compound 0.316 µM, first compound 0.0949 µM) 10.2% | viability, T/C (second compound 0.316 µM, first compound 0.3 µM) 12.1% | viability, T/C (second compound 0.316 µM, first compound 0.949 µM) 10.1% | viability, T/C (second compound 0.316 µM, first compound 3 µM) 9.75% | viability, T/C (second compound 1 µM, first compound 0.00949 µM) 28.3% | viability, T/C (second compound 1 µM, first compound 0.03 µM) 10.3% | viability, T/C (second compound 3.16 µM, first compound 0.00949 µM) 23.4% | viability, T/C (second compound 3.16 µM, first compound 0.03 µM) 9.86% | viability, T/C (second compound 3.16 µM, first compound 0.0949 µM) 9.86% | viability, T/C (second compound 3.16 µM, first compound 0.3 µM) 10.8% | viability, T/C (second compound 3.16 µM, first compound 0.949 µM) 11% | viability, T/C (second compound 3.16 µM, first compound 3 µM) 9.15% | viability, T/C (second compound 10 µM, first compound 0.00949 µM) 25.1% | viability, T/C (second compound 10 µM, first compound 0.03 µM) 10.9%
< 9.49 nM: IC50 (second compound 0.0316 µM) | IC50 (second compound 0.1 µM) | IC50 (second compound 0.316 µM) | IC50 (second compound 1 µM) | IC50 (second compound 3.16 µM) | IC50 (second compound 10 µM)
active: viability, T/C (second compound 0.0316 µM, first compound 0.03 µM) 8.34% | viability, T/C (second compound 0.0316 µM, first compound 0.0949 µM) 8.59% | viability, T/C (second compound 0.0316 µM, first compound 0.3 µM) 12% | viability, T/C (second compound 0.0316 µM, first compound 0.949 µM) 7.39% | viability, T/C (second compound 0.0316 µM, first compound 3 µM) 10.1% | viability, T/C (second compound 0.1 µM, first compound 0.0949 µM) 8.46% | viability, T/C (second compound 0.1 µM, first compound 0.3 µM) 9.83% | viability, T/C (second compound 0.1 µM, first compound 0.949 µM) 9.69% | viability, T/C (second compound 0.1 µM, first compound 3 µM) 8.71% | viability, T/C (second compound 1 µM, first compound 0.0949 µM) 10.1% | viability, T/C (second compound 1 µM, first compound 0.3 µM) 9.22% | viability, T/C (second compound 1 µM, first compound 0.949 µM) 10.3% | viability, T/C (second compound 1 µM, first compound 3 µM) 8.87% | viability, T/C (second compound 10 µM, first compound 0.0949 µM) 9.07% | viability, T/C (second compound 10 µM, first compound 0.3 µM) 10.1% | viability, T/C (second compound 10 µM, first compound 0.949 µM) 8.38% | viability, T/C (second compound 10 µM, first compound 3 µM) 8.52%

CC1COCCN1c1cc(C2(O)CC3CCC(C2)O3)c2cnn(-c3ccn[nH]3)c2n1 (centres undefined) + Cc1cccc(N(C)C(=O)C2C(O)CCN2c2nc(C)cc(C(F)(F)F)c2C#N)c1
68.3 nM: IC50 (second compound 3.16 µM)
68.1 nM: IC50 (second compound 10 µM)
82.7 nM: IC50 (second compound 0.316 µM)
92.6 nM: IC50 (second compound 0.1 µM)
82.6 nM: IC50 (second compound 0.0316 µM)
active: viability, T/C (second compound 0.0316 µM, first compound 1 µM) 12.7% | viability, T/C (second compound 0.0316 µM, first compound 3.16 µM) 7.12% | viability, T/C (second compound 0.0316 µM, first compound 10 µM) 2.45% | viability, T/C (second compound 0.1 µM, first compound 1 µM) 11.5% | viability, T/C (second compound 0.1 µM, first compound 3.16 µM) 7.15% | viability, T/C (second compound 0.1 µM, first compound 10 µM) 2.96% | viability, T/C (second compound 0.316 µM, first compound 1 µM) 9.19% | viability, T/C (second compound 0.316 µM, first compound 3.16 µM) 6.89% | viability, T/C (second compound 0.316 µM, first compound 10 µM) 2.54% | viability, T/C (second compound 1 µM, first compound 1 µM) 10.9% | viability, T/C (second compound 1 µM, first compound 3.16 µM) 7% | viability, T/C (second compound 1 µM, first compound 10 µM) 2.13% | viability, T/C (second compound 3.16 µM, first compound 1 µM) 9.34% | viability, T/C (second compound 3.16 µM, first compound 3.16 µM) 7.31% | viability, T/C (second compound 3.16 µM, first compound 10 µM) 2.13% | viability, T/C (second compound 10 µM, first compound 1 µM) 10.8% | viability, T/C (second compound 10 µM, first compound 3.16 µM) 7.1% | viability, T/C (second compound 10 µM, first compound 10 µM) 1.64%
inactive: viability, T/C (second compound 0.0316 µM, first compound 0.0316 µM) 75.6% | viability, T/C (second compound 0.0316 µM, first compound 0.1 µM) 45.4% | viability, T/C (second compound 0.0316 µM, first compound 0.316 µM) 14.1% | viability, T/C (second compound 0.1 µM, first compound 0.0316 µM) 82.8% | viability, T/C (second compound 0.1 µM, first compound 0.1 µM) 48.1% | viability, T/C (second compound 0.1 µM, first compound 0.316 µM) 15.9% | viability, T/C (second compound 0.316 µM, first compound 0.0316 µM) 84.9% | viability, T/C (second compound 0.316 µM, first compound 0.1 µM) 43.2% | viability, T/C (second compound 0.316 µM, first compound 0.316 µM) 11.8% | viability, T/C (second compound 1 µM, first compound 0.0316 µM) 80.8% | viability, T/C (second compound 1 µM, first compound 0.1 µM) 49% | viability, T/C (second compound 1 µM, first compound 0.316 µM) 12.2% | viability, T/C (second compound 3.16 µM, first compound 0.0316 µM) 70.6% | viability, T/C (second compound 3.16 µM, first compound 0.1 µM) 40.2% | viability, T/C (second compound 3.16 µM, first compound 0.316 µM) 15.1% | viability, T/C (second compound 10 µM, first compound 0.0316 µM) 68.3% | viability, T/C (second compound 10 µM, first compound 0.1 µM) 41.5% | viability, T/C (second compound 10 µM, first compound 0.316 µM) 15.1%
96.1 nM: IC50 (second compound 1 µM)
